According to patent US20250052985A1, “SYSTEM AND METHOD FOR QUANTITATIVE PHASE IMAGING FOR MULTI-PARAMETRIC SCREENING OF TUMOR THERAPY RESPONSE” (UNIVERSITY OF UTAH RESEARCH FOUNDATION, priority 2023, published 2025):
pEC50: −log10 of the molar value. “And” between values parts separate entries of the source, which are not always exact repeats. Equal values may be shown once. Read-outs that look alike come from different tables or passages of the source.

Legend:
MCF-7 cells [1] = assay: cells; conditions: for Max Asymptote / Min Asymptote: MCF-7, 4-parameter Hill fit of mean SGR vs concentration, one line per replicate; for Hill Slope: MCF-7, Hill fit; for DoR QPI / ToR 20 μM: MCF-7 cell line; for DoR QPI: depth of response; for ToR 20 μM: time of response at 20 μM
How it was run: (§1)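 Breast cancer lines imaged noninvasively by DPC-based quantitative phase imaging across 6-point dose responses in triplicate with solvent controls, for 24 h or 72 h after 3 h equilibration, then CellTiter-Glo ATP viability. Mean specific growth rate fitted to a 4-parameter Hill curve for EC50, with an F-test (p<0.01) against a flat line to determine response.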

MDA-MB-231 cells [2] = assay: Quantitative phase imaging (QPI) growth response, MDA-MB-231; assay type: cell-based; design: DoR QPI: scale not given here; ToR 20 μM: unit not given here; conditions: for Max Asymptote / Min Asymptote: MDA-MB-231, 4-parameter Hill fit of mean SGR vs concentration, one line per replicate; for DoR QPI / ToR 20 μM: MDA-MB-231 cell line; for DoR QPI: depth of response; for ToR 20 μM: time of response at 20 μM
How it was run: as §1

BT-474 cells = assay: CellTiter-Glo (CTG) ATP viability assay, BT-474; assay type: cell-based; conditions: for Min Asymptote: BT-474, Hill fit of luminescence normalized to solvent control, one line per replicate; for DoR CTG: BT-474 cell line, depth of response
How it was run: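 Cell viability was read as ATP content by CellTiter-Glo luminescence after replacing media with reagent, shaking 20 min and resting 10 min. Signal was normalized to solvent control, and a 4-parameter Hill fit to the dose response gave EC50 and depth of response.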

MCF-7 cells [3] = assay: CellTiter-Glo (CTG) ATP viability assay, MCF-7; assay type: cell-based; conditions: for Min Asymptote: MCF-7, Hill fit of luminescence normalized to solvent control, one line per replicate; for EC50: Homo sapiens; for DoR CTG: MCF-7 cell line, depth of response
Method: (§2) CTG (e.g., read by the CTG reader 115) is a cell viability assay that quantifies the amount of ATP present at the end of an experiment as an indicator of the number of live cells. The electronic controller 155 measures ATP content in each condition as a readout by a luminescent signal, which is normalized by the luminescence of the control (e.g., a control well) to determine cell viability relative to on-plate controls. In some embodiments, the CTG assay is performed by first removing 100 μL of media from each well on the well-plate 105, which is then replaced with an equal amount of CellTiter-Glo reagent (e.g., Promega, G7572). Assayed plates may be shaken at 500 RPM for 20 minutes and allowed to rest for 10 minutes. In some instances, 100 μL of volume from each well is transferred to a white 96-well plate (e.g., Perkin Elmer, 6005680). The electronic controller 155 collects luminescence data from each well using an Envision plate reader (e.g., Perkin Elmer) and normalized against the solvent control to measure ATP content. The electronic controller 155 fits a 4-parameter hill curve to the dose response to determine the EC50 and depth of response.

MDA-MB-231 cells [4] = assay: CellTiter-Glo (CTG) ATP viability assay, MDA-MB-231; assay type: cell-based; conditions: for Hill Slope / EC50: MDA-MB-231, Hill fit; for Min Asymptote: MDA-MB-231, Hill fit of luminescence normalized to solvent control, one line per replicate; for EC50: read-out: log10(EC50) (converted); for DoR CTG: MDA-MB-231 cell line, depth of response
Method: as §2

SMILES | Max Asymptote (MCF-7 cells [1]; 24 h QPI) | Min Asymptote (MCF-7 cells [1]; 24 h QPI) | Hill Slope (MCF-7 cells [1]; 24 h QPI) | Max Asymptote (MCF-7 cells [1]; 72 h QPI) | Min Asymptote (MCF-7 cells [1]; 72 h QPI) | DoR QPI (MCF-7 cells [1]) | ToR 20 μM (MCF-7 cells [1]) | Max Asymptote (MDA-MB-231 cells [2]; 24 h QPI) | Min Asymptote (MDA-MB-231 cells [2]; 24 h QPI) | Max Asymptote (MDA-MB-231 cells [2]; 72 h QPI) | Min Asymptote (MDA-MB-231 cells [2]; 72 h QPI) | DoR QPI (MDA-MB-231 cells [2]) | ToR 20 μM (MDA-MB-231 cells [2]) | Min Asymptote (BT-474 cells; 72 h CTG) | DoR CTG (BT-474 cells; CellTiter-Glo) | Min Asymptote (MCF-7 cells [3]; 72 h CTG) | DoR CTG (MCF-7 cells [3]; CellTiter-Glo) | Min Asymptote (MDA-MB-231 cells [4]; 72 h CTG) | DoR CTG (MDA-MB-231 cells [4]; CellTiter-Glo) | other results
C[C@]12CC[C@@H]3c4ccc(O)cc4C[C@@H](CCCCCCCCC[S+]([O-])CCCC(F)(F)C(F)(F)F)[C@H]3[C@@H]1CC[C@@H]2O (stereo partly drawn) [Fulvestrant] | 0.04169 | 0.02021 | 0.4537 | 0.01656 and 0.01573 | 0.02377 and 0.02811 | 0.4 | 23.2 | 0.02847 | 0.02401 | 0.01423 and 0.00907 | 0.02796 and 0.03032 | 0.6 | 14.4 | 0.1608 (2×) and 0.8009 | 0.6 | 0.76 and 0.7073 and 0.6956 | 0.3 | 0.01999 | 1.0 | Hill Slope (MCF-7 cells [1]; 72 h QPI): 0.5562 and 0.7449; EC50 (MCF-7 cells [1]; Homo sapiens, MCF7, 24 h, read-out: log10(EC50), 24 h QPI, MCF-7, Hill fit (converted), EC50 in μM per Table 1): 0.000875 µM; pEC50 (MCF-7 cells [1]; Homo sapiens, MCF7, read-out: EC50, QPI, MCF-7 cell line, QPI growth rate): 6.70; cluster mass over time (MCF-7 cells [1]; small cluster of MCF-7 cells, 20 μM, 10 h to 72 h): grow slowly at the beginning and end the experiment with a lower mass than they started with; Hill Slope (MDA-MB-231 cells [2]; 24 h QPI, MDA-MB-231, Hill fit): 2.2482; Hill Slope (MDA-MB-231 cells [2]; 72 h QPI, MDA-MB-231, Hill fit): 1.492 and 0.9134; EC50 (MDA-MB-231 cells [2]; Homo sapiens, MDA-MB-231, 24 h, 24 h QPI, MDA-MB-231, Hill fit, EC50 in μM per Table 1, read-out: log10(EC50) (converted)): 3.43 µM; EC50 (MDA-MB-231 cells [2]; Homo sapiens, MDA-MB-231, MDA-MB-231 cell line, EC50 of the standard deviation, read-out: EC50, SD (converted)): 3.32 µM; pEC50 (MDA-MB-231 cells [2]; Homo sapiens, MDA-MB-231, MDA-MB-231 cell line, QPI growth rate, read-out: EC50, QPI): 4.94; pEC50 (BT-474 cells; Homo sapiens, BT-474, BT-474 cell line, CellTiter-Glo, read-out: EC50, CTG): 2.87; Min Asymptote (MCF-7 cells [3]; 24 h CTG): 0.5189 and 0.9446; EC50 (MCF-7 cells [3]; MCF7, MCF-7 cell line, CellTiter-Glo, read-out: EC50, CTG (converted)): 500 nM; Hill Slope (MDA-MB-231 cells [4]; 72 h CTG): 0.7641; EC50 (MDA-MB-231 cells [4]; Homo sapiens, MDA-MB-231, 72 h, 72 h CTG): 31.4 µM; pEC50 (MDA-MB-231 cells [4]; Homo sapiens, MDA-MB-231, MDA-MB-231 cell line, CellTiter-Glo, read-out: EC50, CTG): 4.50
CC(=O)c1c(C)c2cnc(Nc3ccc(N4CCNCC4)cn3)nc2n(C2CCCC2)c1=O [Palbociclib] | 0.02169 | 0.01657 and 0.02043 | 1.6152 and 1.0687 | 0.009479 and 0.01292 | 0.01776 and 0.02128 | 1.0 | 4.4 | 0.03459 and 0.03302 and 0.02322 | 0.004781 and −0.01622 and 0.01166 | −2.92E−05 and 0.006396 and 0.007784 | 0.03469 and 0.03153 and 0.02663 | 0.6 | 1.6 | 0.01628 and 0.01895 | 0.9 | 0.1244 (2×) and 0.221 | 1.0 | 0.01895 and 7.98E−09 | 0.7 | Hill Slope (BT-474 cells; 24 h CTG, BT-474, Hill fit): 6.945; Min Asymptote (BT-474 cells; 24 h CTG): 0.2202; Hill Slope (BT-474 cells; 72 h CTG, BT-474, Hill fit): 5.467 and 7.802; EC50 (BT-474 cells; Homo sapiens, BT-474, 24 h, 24 h CTG, BT-474, Hill fit, read-out: log10(EC50) (converted)): 14.2 µM; Hill Slope (MCF-7 cells [3]; 72 h CTG, MCF-7, Hill fit): 0.7617 and 0.9004; log10(EC50) (MCF-7 cells [3]; 72 h CTG, MCF-7, Hill fit): −0.1876; EC50 (MCF-7 cells [3]; MCF7, 72 h, 72 h CTG, MCF-7, Hill fit, read-out: log10(EC50) (converted)): 1620 nM; Hill Slope (MDA-MB-231 cells [4]; 24 h CTG): 6.945; Min Asymptote (MDA-MB-231 cells [4]; 24 h CTG): 0.2202; EC50 (MDA-MB-231 cells [4]; Homo sapiens, MDA-MB-231, 24 h, 24 h CTG): 14.2 µM
